Reference: ChEMBL document CHEMBL5096179, “Small molecule approaches to treat autoimmune and inflammatory diseases (Part II): Nucleic acid sensing antagonists and inhibitors” (Bioorg Med Chem Lett, 2021)
pIC50, pKd: −log10 of the molar value. Values belong to the compound of their own block, whether it stands above or below them.

Experiments:
[1] = target: NACHT, LRR and PYD domains-containing protein 3 (Mus musculus, UniProt Q8R4B8); test: Inhibition of NLRP3 inflammasome activation in LPS-primed C57BL/6 mouse bone marrow derived macrophages incubated for 30 mins in presence of ATP by immunoblotting analysis; format: cell-based, Macrophage
NACHT, LRR and PYD domains-containing protein 3, sequence (Q8R4B8 whole entry, the tested form may be a part): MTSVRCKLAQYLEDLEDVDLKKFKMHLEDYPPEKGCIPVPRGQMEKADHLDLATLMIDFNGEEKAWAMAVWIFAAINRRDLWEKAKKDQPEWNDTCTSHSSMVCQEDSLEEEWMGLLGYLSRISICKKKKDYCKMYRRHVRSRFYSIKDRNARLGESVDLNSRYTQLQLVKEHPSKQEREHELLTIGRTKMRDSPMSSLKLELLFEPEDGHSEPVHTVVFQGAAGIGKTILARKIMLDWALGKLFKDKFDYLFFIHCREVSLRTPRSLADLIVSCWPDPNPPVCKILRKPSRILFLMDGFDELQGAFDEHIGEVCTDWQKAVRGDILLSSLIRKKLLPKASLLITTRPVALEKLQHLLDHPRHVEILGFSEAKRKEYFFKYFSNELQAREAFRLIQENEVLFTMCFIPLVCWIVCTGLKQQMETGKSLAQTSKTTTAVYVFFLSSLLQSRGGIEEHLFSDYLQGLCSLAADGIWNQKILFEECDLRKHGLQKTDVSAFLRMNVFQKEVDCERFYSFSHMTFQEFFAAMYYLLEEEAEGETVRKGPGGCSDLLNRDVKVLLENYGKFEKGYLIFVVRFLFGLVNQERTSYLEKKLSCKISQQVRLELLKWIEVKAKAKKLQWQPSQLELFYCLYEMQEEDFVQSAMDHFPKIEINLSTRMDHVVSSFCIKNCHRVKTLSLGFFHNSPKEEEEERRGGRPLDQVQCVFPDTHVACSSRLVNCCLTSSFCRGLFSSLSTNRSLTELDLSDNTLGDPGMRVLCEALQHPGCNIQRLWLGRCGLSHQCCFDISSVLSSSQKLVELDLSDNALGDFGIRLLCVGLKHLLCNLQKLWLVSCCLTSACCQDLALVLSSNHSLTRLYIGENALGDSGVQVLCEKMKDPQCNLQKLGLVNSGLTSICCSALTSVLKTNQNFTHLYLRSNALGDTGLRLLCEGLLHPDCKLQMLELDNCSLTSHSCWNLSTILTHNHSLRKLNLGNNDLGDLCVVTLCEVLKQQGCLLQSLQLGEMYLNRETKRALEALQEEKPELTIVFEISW

RAW264.7 = test: Cytotoxicity against mouse RAW264.7 cells assessed as cell growth inhibition measured after 24 hrs by Celltiter-Glo assay; format: functional, cell-based; conditions: RAW264.7, 24 h
Toll-like receptor 8 [2] = target: T1, Toll-like receptor 8 (Homo sapiens, UniProt Q9NR97); test: Antagonist activity at R848 stimulated TRL8 overexpressed in HEK293 cells measured after 20 to 24 hrs by SEAP reporter assay; format: cell-based
T1 sequence (Q9NR97 whole entry): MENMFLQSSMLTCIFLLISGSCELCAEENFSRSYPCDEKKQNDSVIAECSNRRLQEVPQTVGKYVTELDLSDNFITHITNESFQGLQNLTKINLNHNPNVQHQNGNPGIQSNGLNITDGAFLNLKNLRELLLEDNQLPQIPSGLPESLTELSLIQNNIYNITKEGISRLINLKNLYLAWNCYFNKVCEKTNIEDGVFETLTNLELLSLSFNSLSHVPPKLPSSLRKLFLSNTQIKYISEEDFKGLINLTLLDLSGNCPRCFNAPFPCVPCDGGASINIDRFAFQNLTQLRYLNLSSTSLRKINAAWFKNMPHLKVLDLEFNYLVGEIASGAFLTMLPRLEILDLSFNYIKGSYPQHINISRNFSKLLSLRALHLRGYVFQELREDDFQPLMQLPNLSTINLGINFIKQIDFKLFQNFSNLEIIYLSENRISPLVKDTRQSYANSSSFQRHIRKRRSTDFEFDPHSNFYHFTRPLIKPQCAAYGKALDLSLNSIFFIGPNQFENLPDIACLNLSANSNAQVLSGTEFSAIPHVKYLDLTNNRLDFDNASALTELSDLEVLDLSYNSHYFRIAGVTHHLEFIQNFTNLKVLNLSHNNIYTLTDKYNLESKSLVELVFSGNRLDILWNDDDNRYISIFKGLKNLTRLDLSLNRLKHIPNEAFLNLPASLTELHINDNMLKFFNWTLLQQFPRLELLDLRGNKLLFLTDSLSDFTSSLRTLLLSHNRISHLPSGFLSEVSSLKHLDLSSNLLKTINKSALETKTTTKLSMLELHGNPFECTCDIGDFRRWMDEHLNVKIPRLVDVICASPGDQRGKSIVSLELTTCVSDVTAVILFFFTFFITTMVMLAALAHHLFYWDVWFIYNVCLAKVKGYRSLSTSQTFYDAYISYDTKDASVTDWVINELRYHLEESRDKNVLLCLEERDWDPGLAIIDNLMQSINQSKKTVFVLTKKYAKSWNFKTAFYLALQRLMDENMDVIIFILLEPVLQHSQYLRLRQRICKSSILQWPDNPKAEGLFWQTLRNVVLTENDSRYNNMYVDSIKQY

Toll-like receptor 9 [3] = target: T2, Toll-like receptor 9 (Homo sapiens, UniProt Q9NR96); test: Antagonist activity at TLR9 (unknown origin)
T2 sequence (Q9NR96 whole entry): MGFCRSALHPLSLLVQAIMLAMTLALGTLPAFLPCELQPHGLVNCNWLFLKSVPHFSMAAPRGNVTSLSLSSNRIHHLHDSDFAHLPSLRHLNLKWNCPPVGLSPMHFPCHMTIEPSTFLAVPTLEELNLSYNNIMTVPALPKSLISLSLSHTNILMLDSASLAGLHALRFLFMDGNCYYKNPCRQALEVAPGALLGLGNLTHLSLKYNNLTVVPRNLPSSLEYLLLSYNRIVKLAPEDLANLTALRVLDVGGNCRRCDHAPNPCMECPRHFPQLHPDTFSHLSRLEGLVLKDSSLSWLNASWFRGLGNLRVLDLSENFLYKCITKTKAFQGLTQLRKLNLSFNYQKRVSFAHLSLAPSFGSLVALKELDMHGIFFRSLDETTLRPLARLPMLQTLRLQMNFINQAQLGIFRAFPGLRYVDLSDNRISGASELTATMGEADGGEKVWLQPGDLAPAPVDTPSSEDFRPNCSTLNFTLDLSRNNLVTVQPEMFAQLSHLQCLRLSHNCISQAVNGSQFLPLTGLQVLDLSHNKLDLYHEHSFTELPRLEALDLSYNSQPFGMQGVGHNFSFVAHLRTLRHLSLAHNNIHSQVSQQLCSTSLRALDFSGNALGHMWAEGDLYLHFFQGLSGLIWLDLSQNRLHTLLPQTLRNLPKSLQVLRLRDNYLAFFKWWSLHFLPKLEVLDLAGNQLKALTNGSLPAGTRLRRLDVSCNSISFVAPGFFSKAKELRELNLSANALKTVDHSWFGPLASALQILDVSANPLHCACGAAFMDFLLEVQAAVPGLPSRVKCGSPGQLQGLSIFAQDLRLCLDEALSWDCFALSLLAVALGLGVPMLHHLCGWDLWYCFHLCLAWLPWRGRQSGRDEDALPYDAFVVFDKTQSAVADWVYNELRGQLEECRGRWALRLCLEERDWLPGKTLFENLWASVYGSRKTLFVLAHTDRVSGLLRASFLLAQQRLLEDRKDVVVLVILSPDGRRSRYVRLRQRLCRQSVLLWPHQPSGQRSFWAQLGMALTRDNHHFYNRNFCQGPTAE

Cyclic GMP-AMP synthase [4] = target: T3, Cyclic GMP-AMP synthase (Homo sapiens, UniProt Q8N884); test: Inhibition of N-terminal 6XHis-SUMO2 fused full length human cGAS (1 to 522 residues) expressed in […] incubated for 20 mins in presence of ATP by luminescence based analysis
T3 sequence (Q8N884 whole entry, the tested form may be a part): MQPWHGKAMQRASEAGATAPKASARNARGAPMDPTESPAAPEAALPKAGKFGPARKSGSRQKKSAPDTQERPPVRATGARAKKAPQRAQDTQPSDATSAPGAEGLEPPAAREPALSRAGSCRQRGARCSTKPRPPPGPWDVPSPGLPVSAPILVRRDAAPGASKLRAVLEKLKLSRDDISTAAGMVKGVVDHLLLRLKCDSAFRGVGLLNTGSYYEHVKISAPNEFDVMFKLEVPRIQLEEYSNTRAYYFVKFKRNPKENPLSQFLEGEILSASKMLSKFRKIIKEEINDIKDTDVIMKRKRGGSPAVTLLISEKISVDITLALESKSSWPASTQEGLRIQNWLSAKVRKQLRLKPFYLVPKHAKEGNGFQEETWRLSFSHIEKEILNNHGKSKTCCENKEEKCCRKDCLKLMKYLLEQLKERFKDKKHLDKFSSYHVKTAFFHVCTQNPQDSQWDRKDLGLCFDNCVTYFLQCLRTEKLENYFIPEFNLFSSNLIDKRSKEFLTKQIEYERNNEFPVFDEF

THP-1 [5] = test: Cytotoxicity against human THP-1 cells assessed as cell growth inhibition; format: functional, cell-based
THP-1 [6] = test: Cytotoxicity against human THP-1 cells assessed as cell growth inhibition measured after 24 hrs by Annexin-V staining based flow cytometry analysis; format: functional; conditions: THP-1, 24 h
Toll-like receptor 7 [7] = target: T4, Toll-like receptor 7 (Homo sapiens, UniProt Q9NYK1); test: Antagonist activity at TLR7 in human PBMC incubated for 3 hrs by TR-FRET assay; format: cell-based
T4 sequence (Q9NYK1 whole entry): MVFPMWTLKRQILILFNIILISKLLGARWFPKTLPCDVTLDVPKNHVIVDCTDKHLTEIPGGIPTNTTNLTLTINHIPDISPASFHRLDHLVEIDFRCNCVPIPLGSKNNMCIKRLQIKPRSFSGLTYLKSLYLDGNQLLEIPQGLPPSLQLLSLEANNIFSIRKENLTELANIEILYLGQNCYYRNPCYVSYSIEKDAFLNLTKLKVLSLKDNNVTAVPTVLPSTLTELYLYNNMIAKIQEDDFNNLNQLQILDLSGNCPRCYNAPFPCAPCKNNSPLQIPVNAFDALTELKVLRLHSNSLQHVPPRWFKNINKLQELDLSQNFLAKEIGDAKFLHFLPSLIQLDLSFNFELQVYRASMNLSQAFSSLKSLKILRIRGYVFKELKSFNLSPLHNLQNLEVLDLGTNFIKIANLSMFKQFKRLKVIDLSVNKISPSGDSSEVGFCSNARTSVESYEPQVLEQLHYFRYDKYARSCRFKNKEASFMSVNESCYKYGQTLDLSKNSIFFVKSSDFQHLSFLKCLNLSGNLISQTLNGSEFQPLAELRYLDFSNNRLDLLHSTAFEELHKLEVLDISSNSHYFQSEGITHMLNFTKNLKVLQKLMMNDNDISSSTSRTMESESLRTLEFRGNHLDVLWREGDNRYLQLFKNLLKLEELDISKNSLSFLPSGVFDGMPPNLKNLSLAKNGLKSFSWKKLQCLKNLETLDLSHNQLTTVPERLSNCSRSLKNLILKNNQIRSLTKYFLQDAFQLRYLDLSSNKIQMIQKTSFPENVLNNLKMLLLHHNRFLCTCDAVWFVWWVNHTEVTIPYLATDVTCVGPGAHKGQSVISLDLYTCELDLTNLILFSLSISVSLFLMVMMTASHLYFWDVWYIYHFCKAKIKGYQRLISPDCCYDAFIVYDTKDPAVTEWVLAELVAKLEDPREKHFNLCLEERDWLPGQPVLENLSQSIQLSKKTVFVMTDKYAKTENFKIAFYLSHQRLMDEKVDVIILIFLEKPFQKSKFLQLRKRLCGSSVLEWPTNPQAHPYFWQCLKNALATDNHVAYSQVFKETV

[8] = Cytotoxicity against human THP1-Dual KO-IFNAR2 cells assessed as cell growth inhibition; format: functional, cell-based
Cyclic GMP-AMP synthase [9] = target: T3, Cyclic GMP-AMP synthase; test: Inhibition of cGAS expressed in human THP-1 cells assessed as reduction of IFN-beta expression by ELISA assay; format: cell-based
Cyclic GMP-AMP synthase [10] = target: T3, Cyclic GMP-AMP synthase; test: Inhibition of full-length human cGAS by fluorescence polarization
IMR-90 = test: Cytotoxicity against human IMR-90 cells assessed as inhibition of IFN-beta production by MTS assay; format: functional, cell-based
[11] = target: Stimulator of interferon genes protein (Homo sapiens, UniProt Q86WV6); test: Binding affinity to wild-type human STING CTD (149 to 379 residues) expressed in Escherichia coli BL21 (DE3) assessed as dissociation constant by isothermal titration calorimetry assay
Stimulator of interferon genes protein, sequence (Q86WV6 whole entry, the tested form may be a part): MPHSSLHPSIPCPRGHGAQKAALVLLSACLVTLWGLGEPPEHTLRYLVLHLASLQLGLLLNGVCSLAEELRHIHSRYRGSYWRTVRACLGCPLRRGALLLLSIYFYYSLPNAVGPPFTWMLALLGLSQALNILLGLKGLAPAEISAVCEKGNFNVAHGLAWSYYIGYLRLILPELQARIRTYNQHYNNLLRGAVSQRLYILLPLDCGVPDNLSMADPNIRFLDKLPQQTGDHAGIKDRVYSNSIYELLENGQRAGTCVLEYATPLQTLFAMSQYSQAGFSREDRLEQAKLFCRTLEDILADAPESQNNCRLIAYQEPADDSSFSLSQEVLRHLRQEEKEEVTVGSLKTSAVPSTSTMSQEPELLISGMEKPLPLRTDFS

THP-1 [12] = test: Cytotoxicity against human THP-1 cells assessed as cell growth inhibition measured after 24 hrs by Celltiter-Glo assay; format: functional, cell-based; conditions: THP-1, 24 h
Toll-like receptor 8 [13] = target: T1, Toll-like receptor 8; test: Antagonist activity at R848 stimulated TRL8 in HEK-Blue hTLR8 cells assessed as inhibition of NF kappa B/Ap-1 activation measured after 20 hrs by SEAP reporter assay; format: cell-based
Toll-like receptor 7 [14] = target: T4, Toll-like receptor 7; test: Antagonist activity at R848 stimulated TRL7 in HEK-Blue hTLR7 cells assessed as inhibition of NF kappa B/Ap-1 activation measured after 20 hrs by SEAP reporter assay; format: cell-based
Toll-like receptor 9 [15] = target: T2, Toll-like receptor 9; test: Antagonist activity at R848 stimulated TRL9 in HEK-Blue hTLR9 cells assessed as inhibition of NF kappa B/Ap-1 activation measured after 20 hrs by SEAP reporter assay; format: cell-based
[16] = Inhibition of MCP-1 secretion in mouse Trex1-knockout bone marrow-derived macrophages incubated for 24 hrs by celltiter-glo assay; format: functional, cell-based; conditions: BMDM
Cyclic GMP-AMP synthase [17] = target: T3, Cyclic GMP-AMP synthase; test: Antagonist activity at N-terminal 6XHis tagged human cGAS (155 to 522 residues) expressed in Escherichia coli BL21 DE3 Rosetta 2 in presence of ATP by luciferase based assay
[18] = Inhibition of RANTES secretion in mouse Trex1-knockout bone marrow-derived macrophages incubated for 24 hrs by celltiter-glo assay; format: functional, cell-based; conditions: BMDM

Structure (SMILES): Nc1ccc(-c2cc(Cl)c(Cl)c3[nH]c4c(c23)CN(C(=O)CO)CC4)cn1
pIC50 (RAW264.7): > 6.00

Structure (SMILES): Cc1cccc(-c2ccnc3c(C(N)=O)cnn23)c1
pIC50 (Toll-like receptor 8 [2]): 7.17

Structure (SMILES): CNCc1ccc(C(=O)Nc2nc(N3CCN(C4CCCC4)CC3)c3ncn(CCCN4CCCC4)c3n2)cc1
pIC50 (Toll-like receptor 9 [3]): 8.30

Structure (SMILES): COC(=O)[C@H](Cc1ccccc1)Nc1nc(NCc2nc3cc(F)ccc3[nH]2)nc(Nc2cccc(CN3CCN(C(=O)c4nccnc4O)CC3)c2)n1
pIC50 (THP-1 [5]): 4.70

Structure (SMILES): COc1ccc2nc3cc(N)ccc3c(N(C)CCCN(C)c3ccncc3)c2c1
pIC50 (THP-1 [6]): 4.85

Structure (SMILES): O=C(Nc1c[nH]c2cc(F)c(F)cc12)c1ncn(Cc2ccc(C(F)(F)F)cc2)n1
pIC50 [8]: 7.40

Structure (SMILES): CCCCc1ccc(Nc2c(Nc3c[nH]c4ccccc34)c(=O)c2=O)cc1
pIC50 [8]: 6.70

Structure (SMILES): CCCCc1ccc(S(N)(=O)=Nc2c[nH]c3ccccc23)cc1 (stereo not drawn)
pIC50 [8]: 7.40

Structure (SMILES): Cc1[nH]n2c(-c3ccccc3)c(C#N)nc2c(=O)c1-c1cccc(Cl)c1
pIC50 (Cyclic GMP-AMP synthase [10]): > 6.00
pIC50 (THP-1 [5]): > 5.00

Structure (SMILES): CC[C@@H]1CC(=O)[C@@H]2[C@H](Cl)[C@H](Cl)CN2C(=O)[C@H](CC)NC(=O)C[C@H](c2ccccc2)NC(=O)[C@H](CO)NC1=O
pIC50 (IMR-90): 4.97
pKd [11]: 7.28

Structure (SMILES): O=C(Nc1cc(-c2ccccc2)ccn1)c1[nH]ncc1[N+](=O)[O-]
pIC50 (THP-1 [12]): 5.58

Structure (SMILES): Cc1cc(N2CCOC3(CN(C[C@H]4CN(c5ccc(C#N)c6ncccc56)C[C@@H](C)O4)C3)C2)cc(C)n1
pIC50 (Toll-like receptor 8 [13]): > 8.52
pIC50 (Toll-like receptor 7 [14]): > 8.52
pIC50 (Toll-like receptor 9 [15]): > 7.49

Structure (SMILES): COC12CNCC1CN(c1ccc3c(c1)CN1[C@H](C)CN(c4ccc(C#N)c5ncccc45)C[C@H]31)C2 (stereo partly drawn)
pIC50 (Toll-like receptor 8 [13]): > 8.52
pIC50 (Toll-like receptor 7 [14]): > 8.52
pIC50 (Toll-like receptor 9 [15]): > 7.49

Structure (SMILES): CCCCc1ccc(NC(=O)Nc2c[nH]c3ncc(F)cc23)cc1
pIC50 [8]: 7.40

More lines, main results first:

pIC50 [1]: 4.60
Structure (SMILES): COc1ccc(/C=C/C(=O)Nc2ccccc2C(=O)O)cc1OC

pIC50 (Cyclic GMP-AMP synthase [4]): 4.88
Structure (SMILES): O=C(O)c1cccc(NC(=O)c2n[nH]c(-n3cnnc3)n2)c1

pIC50 (Toll-like receptor 7 [7]): > 9.30
Structure (SMILES): CCN(C)CC(=O)NC12CCC(Cn3nc(C)c4c3CCN(c3cc(C)nc5c3cnn5C)C4)(CC1)CC2

pIC50 (Cyclic GMP-AMP synthase [4]): 4.52
Structure (SMILES): O=C(O)c1n[nH]c(-n2cnnc2)n1

pIC50 (Cyclic GMP-AMP synthase [9]): 4.89
Structure (SMILES): Cc1nc(N2C[C@@H](CC(=O)Nc3ccncc3)C[C@H]2C(=O)O)c2oc3ccccc3c2n1

pIC50 (Cyclic GMP-AMP synthase [17]): > 4.70
Structure (SMILES): COc1cccc2oc(-c3c(C#N)[nH]c4c(-c5ccccc5)c(C(F)(F)F)nn4c3=O)nc12
pIC50 [16]: 5.16
pIC50 [18]: 5.90
